# Laboratory results: PMC7849018 (Antimicrobial Agents and Chemotherapy, 2021)
# “Also recorded” adds a separate entry of the source. Where two headings read alike, the source gives them in different places.
# How the values were obtained:
# HepG2 cells = experiment: Intracellular reactive oxygen species level; assay type: cell-based, human
# [1] = Mitochondrial respiration; assay type: cell-based; settings: human; for CC50 at 3 day: PHH cells (primary human hepatocytes); for CC50 at 3 days: primary human hepatocytes (PHH)
# [2] = test system: HepG2 galactose-adapted cell line; settings: read-out: 5-day CC50 HepG2 cells Aerobic (galactose)
# in vitro [3] = settings: human, CC50, Myeloid progenitors; 11- to 14-day treatment
# [4] = test system: mitochondrial DNA (mtDNA) in HepG2 cells; experiment: Mitochondrial DNA content by qPCR; assay type: cell-based, human; settings: continual treatment for 10 days
# in vitro [5] = settings: human
# [6] = Cellular ATP alongside the mitochondrial protein synthesis assay; settings: human, PC-3 cells
# [7] = Mitochondrial respiration; assay type: cell-based; settings: human, HepG2 cells, 3-day treatment
# [8] = test system: SARS-CoV-2 in human airway epithelial cells (HAE); settings: read-out: EC50 against SARS-CoV-2; cited from earlier work
# Stimulated PBMC = settings: 5-day treatment
# [9] = cited from earlier work
# [10] = cited from earlier work; remark: listed apart in the source
# [11] = Mitochondrial respiration; assay type: cell-based; settings: human, PC-3 cells, 3-day treatment
# [12] = hospitalized patients with COVID-19; RDV for up to 10 days; cited from earlier work
# [13] = test system: SDH-A (nuclear DNA-encoded succinate dehydrogenase, complex II) protein level; experiment: Mitochondrial protein synthesis assay; assay type: cell-based; settings: human, PC-3 cells
# [14] = test system: PC-3 galactose-adapted cell line; settings: CC50 galactose versus glucose culture
# [15] = moderate COVID-19, cited from earlier work
# [16] = test system: COX-1 (mitochondrial DNA-encoded cytochrome c oxidase, complex IV) protein level; experiment: Mitochondrial protein synthesis assay; assay type: cell-based; settings: human, PC-3 cells
# [17] = Mitochondrial respiration; assay type: cell-based; settings: human, RPTEC cells, RPTECs, 3-day treatment
# human POLRMT = human POLRMT (Homo sapiens, UniProt O00411); experiment: Enzymatic inhibition assay; assay type: biochemical; settings: read-out: IC50 POLRMT pol
# PC-3 = settings: read-out: 5-day CC50 PC-3 cells Anaerobic (glucose)
# in vitro [18] = settings: human; remark: listed apart in the source
# HepG2 = settings: read-out: 5-day CC50 HepG2 cells Anaerobic (glucose)
# [19] = target: human DNA polymerase beta (Homo sapiens, UniProt P06746); experiment: Enzymatic inhibition assay; assay type: biochemical; settings: read-out: IC50 DNA pol β
# [20] = target: T1, human DNA polymerase gamma (Homo sapiens, UniProt P54098); experiment: Enzymatic inhibition assay; assay type: biochemical; settings: read-out: IC50 DNA pol γ
# T1 sequence (P54098 1-1239): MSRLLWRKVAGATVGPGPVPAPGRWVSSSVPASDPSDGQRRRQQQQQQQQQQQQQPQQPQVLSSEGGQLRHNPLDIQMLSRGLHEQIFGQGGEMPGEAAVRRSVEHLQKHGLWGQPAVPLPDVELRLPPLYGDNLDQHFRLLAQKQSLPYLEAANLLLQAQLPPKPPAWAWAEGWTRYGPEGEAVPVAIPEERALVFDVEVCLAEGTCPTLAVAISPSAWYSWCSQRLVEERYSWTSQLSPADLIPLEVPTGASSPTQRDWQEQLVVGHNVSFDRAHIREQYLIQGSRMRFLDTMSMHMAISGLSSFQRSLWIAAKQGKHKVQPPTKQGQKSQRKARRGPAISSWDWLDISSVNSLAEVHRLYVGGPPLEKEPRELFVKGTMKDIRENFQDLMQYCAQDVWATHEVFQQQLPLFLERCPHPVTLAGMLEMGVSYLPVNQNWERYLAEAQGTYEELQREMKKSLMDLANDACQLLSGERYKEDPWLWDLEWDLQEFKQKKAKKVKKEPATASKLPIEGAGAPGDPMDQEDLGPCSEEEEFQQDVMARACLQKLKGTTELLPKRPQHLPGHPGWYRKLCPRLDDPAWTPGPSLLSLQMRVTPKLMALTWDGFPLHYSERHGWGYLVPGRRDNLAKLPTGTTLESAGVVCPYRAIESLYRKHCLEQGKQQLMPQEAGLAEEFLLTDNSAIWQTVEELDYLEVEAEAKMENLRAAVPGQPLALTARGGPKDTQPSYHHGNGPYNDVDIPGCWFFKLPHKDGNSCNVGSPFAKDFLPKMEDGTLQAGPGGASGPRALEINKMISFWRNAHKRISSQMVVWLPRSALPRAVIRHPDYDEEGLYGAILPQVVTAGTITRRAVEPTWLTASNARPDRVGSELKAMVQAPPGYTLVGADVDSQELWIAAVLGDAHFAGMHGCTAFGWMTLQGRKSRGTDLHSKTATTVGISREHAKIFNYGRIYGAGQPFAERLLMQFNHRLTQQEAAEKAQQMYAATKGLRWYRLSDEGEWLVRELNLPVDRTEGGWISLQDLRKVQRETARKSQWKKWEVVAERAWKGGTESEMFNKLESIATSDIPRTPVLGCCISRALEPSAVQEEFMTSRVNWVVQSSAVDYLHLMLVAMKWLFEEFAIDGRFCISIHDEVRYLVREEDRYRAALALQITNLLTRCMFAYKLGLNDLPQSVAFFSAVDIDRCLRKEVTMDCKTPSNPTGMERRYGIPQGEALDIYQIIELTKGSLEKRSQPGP
# T1 sequence (Q9UHN1 26-485 partner limits assumed): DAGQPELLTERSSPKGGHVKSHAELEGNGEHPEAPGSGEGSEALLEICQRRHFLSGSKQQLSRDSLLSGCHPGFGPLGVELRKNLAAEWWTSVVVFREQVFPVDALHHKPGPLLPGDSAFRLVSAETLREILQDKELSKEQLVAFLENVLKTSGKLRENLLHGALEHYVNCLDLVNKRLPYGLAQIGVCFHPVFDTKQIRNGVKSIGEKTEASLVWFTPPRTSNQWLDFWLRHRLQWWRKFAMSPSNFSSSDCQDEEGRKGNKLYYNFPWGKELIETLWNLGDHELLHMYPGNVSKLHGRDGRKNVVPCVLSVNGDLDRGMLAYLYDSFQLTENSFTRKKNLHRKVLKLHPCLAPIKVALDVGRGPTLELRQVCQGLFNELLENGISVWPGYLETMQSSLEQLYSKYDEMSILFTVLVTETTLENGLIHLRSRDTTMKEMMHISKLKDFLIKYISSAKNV
# [21] = target: human mitochondrial POLRMT (Homo sapiens, UniProt O00411); experiment: Single nucleotide incorporation assay; assay type: biochemical; settings: 500 μM nucleotide analog; relative to natural NTP at same concentration
# [22] = target: T2, human mitochondrial DNA Pol γ (Homo sapiens, UniProt P54098); experiment: Single nucleotide incorporation assay; assay type: biochemical; settings: 50 μM nucleotide analog; relative to natural dNTP at same concentration
# T2 sequence (P54098 1-1239): T1 sequence (P54098 1-1239)
# T2 sequence (Q9UHN1 26-485 partner limits assumed): T1 sequence (Q9UHN1 26-485 partner limits assumed)
# [23] = pH 7.4, 3-day CC50 Spare respiration
# [24] = healthy subjects, repeat-dose study 150 mg once daily, reversible
# [25] = humans, repeated dosing of 150 mg
# Sequence of human mitochondrial POLRMT (O00411 42-1230): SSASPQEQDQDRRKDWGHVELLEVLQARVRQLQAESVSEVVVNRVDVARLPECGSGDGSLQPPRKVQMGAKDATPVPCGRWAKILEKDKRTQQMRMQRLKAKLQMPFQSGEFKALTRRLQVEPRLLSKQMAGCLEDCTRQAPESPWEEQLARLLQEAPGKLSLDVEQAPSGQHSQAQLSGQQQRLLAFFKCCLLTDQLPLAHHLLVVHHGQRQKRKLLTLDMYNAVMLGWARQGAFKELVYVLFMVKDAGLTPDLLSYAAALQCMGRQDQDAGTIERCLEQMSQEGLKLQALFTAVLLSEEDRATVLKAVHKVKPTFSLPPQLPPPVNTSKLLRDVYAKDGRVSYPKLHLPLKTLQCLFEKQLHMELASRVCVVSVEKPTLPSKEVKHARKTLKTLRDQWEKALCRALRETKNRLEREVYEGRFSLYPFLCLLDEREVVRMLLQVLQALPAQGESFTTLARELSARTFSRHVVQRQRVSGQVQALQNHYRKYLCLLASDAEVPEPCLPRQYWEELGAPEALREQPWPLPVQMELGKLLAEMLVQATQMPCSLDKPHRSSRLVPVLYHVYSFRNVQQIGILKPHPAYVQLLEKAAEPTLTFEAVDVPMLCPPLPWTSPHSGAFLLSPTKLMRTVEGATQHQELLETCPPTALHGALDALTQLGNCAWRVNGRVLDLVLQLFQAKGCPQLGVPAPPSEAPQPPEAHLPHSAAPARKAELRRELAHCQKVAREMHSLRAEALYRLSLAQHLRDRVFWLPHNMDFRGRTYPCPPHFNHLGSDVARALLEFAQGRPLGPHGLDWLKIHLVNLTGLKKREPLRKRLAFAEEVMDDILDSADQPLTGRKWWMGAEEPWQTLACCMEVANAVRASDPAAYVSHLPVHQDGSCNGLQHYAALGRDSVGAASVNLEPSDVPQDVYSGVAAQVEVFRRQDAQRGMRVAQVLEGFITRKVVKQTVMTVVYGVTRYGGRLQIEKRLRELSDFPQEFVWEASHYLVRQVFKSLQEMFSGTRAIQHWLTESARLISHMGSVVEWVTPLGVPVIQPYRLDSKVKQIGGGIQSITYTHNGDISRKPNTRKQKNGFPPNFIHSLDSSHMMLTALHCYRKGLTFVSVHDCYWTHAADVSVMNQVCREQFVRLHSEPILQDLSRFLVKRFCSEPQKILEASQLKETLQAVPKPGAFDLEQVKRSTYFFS
# Sequence of human POLRMT (O00411 42-1230): as above
smiles,measurement,setting,value
"CC1=CC(=O)c2ccccc2C1=O [menadione, reference compound]",increase in ROS levels,HepG2 cells; 30-minute incubation (100 or 200 μM),> 3 fold
"CCC(CC)COC(=O)[C@H](C)N[P@](=O)(OC[C@H]1O[C@@](C#N)(c2ccc3c(N)ncnn23)[C@H](O)[C@@H]1O)Oc1ccccc1 [RDV, Remdesivir]",CC50 at 3 day,[1],7.8 ± 2.2 µM
same,CC50 at 3 days,[1],13.4 ± 1.7 µM
same,CC50 at 3 days,[1]; pH 7.4,7.6 ± 1.9 µM
same,CC50,[2],11.1 ± 1.2 µM
same,CC50,in vitro [3],5.1 ± 2.3 µM
same,effect on mtDNA content (in words),[4],lack of dose response
same,CC50 at 5 days,in vitro [5],1.4 ± 0.1 µM
same,CC50 at 5 days,[6],11.3 ± 3.3 µM
same,CC50 at 3 day,[7]; 3-day CC50 Cellular ATP,7.9 ± 0.1 µM
same,CC50 at 3 day,[7]; 3-day CC50 Total DNA content,6.3 ± 0.9 µM
same,CC50 at 3 day,[7]; [23],10.6 ± 0.1 µM
same,EC50,[8],0.0099 µM
same,CC50,Stimulated PBMC,14.8 ± 5.8 µM
same,decrease in cell viability,"HepG2 cells; 100 μM, 24-h incubation",60%
same,increase in ROS levels,"HepG2 cells; 100 μM, 24-h incubation, vs DMSO control",60%
same,effect on ROS levels,"HepG2 cells; 3.1 to 50 μM, 24-h incubation",no significant increase in ROS levels; also recorded: no effect on ROS
same,treatment-emergent grade 1 or 2 ALT elevations,[9]; [24],50%
same,treatment-emergent grade 1 or 2 AST elevations,[9]; [24],44%
same,plasma Cmax,[9]; [25],"2,720 ng/ml"
same,t1/2,[9]; [25],1.11 h
same,Cmax,"[9]; read-out: plasma Cmax, humans, repeated dosing of 150 mg",4.5 µM
same,adverse events of elevations in ALT,[10]; 5-day RDV treatment,6%
same,adverse events of elevations in AST,[10]; 5-day RDV treatment,5%
same,adverse events of elevations in ALT,[10]; 10-day RDV treatment,8%
same,adverse events of elevations in AST,[10]; 10-day RDV treatment,7%
same,CC50 at 3 day,[11]; 3-day CC50 Cellular ATP,24 ± 1.4 µM
same,CC50 at 3 day,[11]; [23],2.5 ± 0.1 µM
same,"adverse events of increased amino transferase levels, including ALT, AST, or both",[12],6 % of subjects
same,CC50 at 5 days,[13],8.6 ± 1.3 µM
same,enhancement of cytotoxicity by aerobic conditions,[14],6 fold
same,"Grade 3 or 4 adverse events, ALT",[15]; 5-day RDV,2%
same,"Grade 3 or 4 adverse events, AST",[15]; 5-day RDV,3%
same,adverse events of elevations in ALT,[15]; 5-day RDV,34%
same,adverse events of elevations in AST,[15]; 5-day RDV,32%
same,"Grade 3 or 4 adverse events, ALT",[15]; 10-day RDV,3%
same,"Grade 3 or 4 adverse events, AST",[15]; 10-day RDV,1%
same,adverse events of elevations in ALT,[15]; 10-day RDV,32%
same,adverse events of elevations in AST,[15]; 10-day RDV,32%
same,CC50 at 5 days,[16],8.9 ± 1.1 µM
same,CC50 at 3 day,[17]; 3-day CC50 Cellular ATP,16.9 ± 4.1 µM
same,CC50 at 3 day,[17]; 3-day CC50 Total DNA content,14.3 ± 3.3 µM
same,CC50 at 3 day,[17]; [23],7.3 ± 2.7 µM
"O=C(N[C@H](CO)[C@H](O)c1ccc([N+](=O)[O-])cc1)C(Cl)Cl [Chloramphenicol, chloramphenicol, reference compound]",CC50 at 5 days,[6],14.1 ± 3.6 µM
same,CC50 at 3 day,[11]; 3-day CC50 Cellular ATP,> 50 µM
same,CC50 at 3 day,[11]; 3-day CC50 Total DNA content,> 50 µM
same,CC50 at 3 day,[11]; [23],4.8 ± 1.3 µM
same,CC50 at 5 days,[13],> 25 µM
same,CC50 at 5 days,[16],2.6 ± 0.6 µM
"Nc1nc2c(ncn2[C@@H]2O[C@H](COP(=O)(O)OP(=O)(O)OP(=O)(O)O)C[C@H]2O)c(=O)[nH]1 [3′deoxy GTP, 3′-deoxy GTP]",IC50,human POLRMT,4.2 µM
N#C[C@@]1(c2ccc3c(N)ncnn23)O[C@H](CO)[C@@H](O)[C@H]1O [GS-441524],CC50 at 3 day,[1],> 100 µM
same,CC50 at 3 days,[1],> 100 µM
same,CC50 at 3 days,[1]; pH 7.4,> 100 µM
same,CC50,in vitro [3],11.7 ± 9.6 µM
same,effect on mtDNA content (in words),[4],overall minimal
same,CC50,PC-3,> 100 µM
same,CC50 at 5 days,in vitro [5],> 100 µM
same,CC50 at 5 days,[6],> 100 µM
same,CC50 at 3 day,[7]; 3-day CC50 Cellular ATP,> 100 µM
same,CC50 at 3 day,[7]; 3-day CC50 Total DNA content,> 100 µM
same,CC50 at 3 day,[7]; [23],> 100 µM
same,CC50 at 5 days,in vitro [18],> 100 µM
same,CC50 at 3 day,[11]; 3-day CC50 Cellular ATP,> 100 µM
same,CC50 at 3 day,[11]; 3-day CC50 Total DNA content,> 100 µM
same,CC50 at 3 day,[11]; [23],> 100 µM
same,CC50 at 5 days,[13],> 100 µM
same,CC50,HepG2,> 100 µM
same,CC50 at 5 days,[16],> 100 µM
same,CC50 at 3 day,[17]; 3-day CC50 Cellular ATP,> 100 µM
same,CC50 at 3 day,[17]; 3-day CC50 Total DNA content,> 100 µM
same,CC50 at 3 day,[17]; [23],> 100 µM
Cc1cn([C@H]2CC[C@@H](COP(=O)(O)OP(=O)(O)OP(=O)(O)O)O2)c(=O)[nH]c1=O [3′dTTP],IC50,[19],1.9 µM
same,IC50,[20],1.2 µM
"CC(C)C(=O)OC[C@@]1(N=[N+]=[N-])O[C@@H](n2ccc(N)nc2=O)[C@H](OC(=O)C(C)C)[C@@H]1OC(=O)C(C)C [4’CN-CTP, 4′-CN-CTP]","Rate of incorporation (% of natural dNTP or NTP), mtRNA polymerase",[21],112% ± 10%
"[H]/N=C(/N)N/C(=N/[H])NCCc1ccccc1 [Phenformin, phenformin, reference compound]",CC50 at 3 day,[1],9.7 ± 4.5 µM
same,CC50 at 3 days,[1],22.1 ± 1.9 µM
same,CC50 at 3 days,[1]; pH 7.4,1.9 ± 0.5 µM
"Nc1ncn([C@H]2C[C@H](O)[C@@H](COP(=O)(O)OP(=O)(O)OP(=O)(O)O)O2)c(=O)n1 [5-aza-2′-dCTP, 5-aza-2′-deoxyCTP]","Rate of incorporation (% of natural dNTP or NTP), DNA polymerase γ",[22],79% ± 8%
"O=c1[nH]cc(F)c(=O)[nH]1 [5-fluorouracil, reference compound]",CC50,in vitro [3],2.2 ± 0.6 µM
"COc1nc(N)nc2c1ncn2[C@@H]1O[C@H](COP(=O)(N[C@@H](C)C(=O)OCC(C)(C)C)Oc2cccc3ccccc23)[C@@H](O)[C@@]1(C)O (some centres unmarked) [2’CMe-GTP, 2′CMe-GTP]","Rate of incorporation (% of natural dNTP or NTP), mtRNA polymerase",[21],92% ± 33%
